Test results from the NIST ThermoML archive (doi:10.1016/j.jct.2015.07.042).
Numbers after ± are expanded uncertainties.

Assay: activity coefficient (dimensionless); of the first substance listed, at infinite dilution; xn = mol fraction of the nth substance listed
Conditions: 101 kPa, Liquid, Chromatography, x1 = 0

SMILES | activity coefficient (358.15 K) | activity coefficient (368.15 K) | activity coefficient (378.15 K) | activity coefficient (388.15 K) | activity coefficient (398.15 K) | activity coefficient (408.15 K) | activity coefficient (418.15 K) | activity coefficient (428.15 K)
CCCC(=O)OC [methyl butanoate] + CCCCn1cc[n+](C)c1.[Cl-] | 12.3 ± 0.84 | 12.4 ± 0.85 | 12.6 ± 0.86 | 12.7 ± 0.87 | – | – | – | –
CCCC=O [butanal] + CCCCn1cc[n+](C)c1.CS(=O)(=O)[O-] | 3.33 ± 0.23 | 3.44 ± 0.23 | 3.58 ± 0.24 | 3.74 ± 0.25 | – | – | – | –
CCCC=O [butanal] + CCCCn1cc[n+](C)c1.COP(=O)([O-])OC | 2.66 ± 0.18 | 2.74 ± 0.19 | 2.82 ± 0.19 | 2.97 ± 0.2 | – | – | – | –
CCCCCCCCC [nonane] + CCCCn1cc[n+](C)c1.CS(=O)(=O)[O-] | 251 ± 17 | 239 ± 16 | 229 ± 16 | 223 ± 15 | – | – | – | –
C=Cc1ccccc1 [styrene] + CCCCn1cc[n+](C)c1.[Cl-] | 4.96 ± 0.34 | 5.18 ± 0.35 | 5.42 ± 0.37 | 5.73 ± 0.39 | – | – | – | –
C=CCCCCCCCC [1-decene] + CCCCn1cc[n+](C)c1.[Cl-] | 323 ± 22 | 306 ± 21 | 285 ± 20 | 277 ± 19 | – | – | – | –
CCCCCCCCCC [decane] + CCCCn1cc[n+](C)c1.[Cl-] | 704 ± 48 | 638 ± 44 | 580 ± 40 | 560 ± 39 | – | – | – | –
C#CCCCC [1-hexyne] + CCCCn1cc[n+](C)c1.COP(=O)([O-])OC | 3.01 ± 0.2 | 3.22 ± 0.22 | 3.39 ± 0.23 | 3.57 ± 0.24 | – | – | – | –
C=CCCCCCCCC [1-decene] + CCCCn1cc[n+](C)c1.COP(=O)([O-])OC | 53.5 ± 3.7 | 52.2 ± 3.6 | 50.4 ± 3.5 | 49.2 ± 3.4 | – | – | – | –
CCCC(=O)OC [methyl butanoate] + CCCCn1cc[n+](C)c1.CS(=O)(=O)[O-] | 6.79 ± 0.46 | 7.21 ± 0.49 | 7.39 ± 0.5 | 7.84 ± 0.53 | – | – | – | –
CCCCCCCC [octane] + CCCCn1cc[n+](C)c1.COP(=O)([O-])OC | 47.9 ± 3.3 | 46.2 ± 3.2 | 44.6 ± 3 | 43.4 ± 3 | – | – | – | –
C1CCCC1 [cyclopentane] + CCCCn1cc[n+](C)c1.COP(=O)([O-])OC | 8.76 ± 0.6 | 8.59 ± 0.59 | 8.41 ± 0.57 | 8.33 ± 0.57 | – | – | – | –
c1ccncc1 [pyridine] + CCCCn1cc[n+](C)c1.CS(=O)(=O)[O-] | 10.9 ± 0.75 | 10.8 ± 0.74 | 10.6 ± 0.72 | 10.5 ± 0.71 | – | – | – | –
CCCO [propan-1-ol] + CCCCn1cc[n+](C)c1.CS(=O)(=O)[O-] | – | – | – | – | 0.711 ± 0.047 | 0.744 ± 0.049 | 0.783 ± 0.051 | 0.823 ± 0.053
CCOC(C)(C)C [2-ethoxy-2-methylpropane] + CCCCn1cc[n+](C)c1.COP(=O)([O-])OC | 12.8 ± 0.87 | 12.8 ± 0.87 | 12.9 ± 0.88 | 12.9 ± 0.88 | – | – | – | –
C1=CCCCC1 [cyclohexene] + CCCCn1cc[n+](C)c1.[Cl-] | 22.8 ± 1.6 | 22.3 ± 1.5 | 21.5 ± 1.5 | 21.3 ± 1.5 | – | – | – | –
C#CCCCCCC [1-octyne] + CCCCn1cc[n+](C)c1.[Cl-] | 18.3 ± 1.2 | 19.2 ± 1.3 | 19.7 ± 1.4 | 20.4 ± 1.4 | – | – | – | –
Cc1ccc(C)cc1 [1,4-dimethylbenzene] + CCCCn1cc[n+](C)c1.[Cl-] | 13.6 ± 0.93 | 13.7 ± 0.94 | 14 ± 0.96 | 14.3 ± 0.98 | – | – | – | –
CCC(=O)CC [pentan-3-one] + CCCCn1cc[n+](C)c1.CS(=O)(=O)[O-] | 4.68 ± 0.32 | 4.79 ± 0.33 | 4.88 ± 0.33 | 5.09 ± 0.35 | – | – | – | –
C#CCCCC [1-hexyne] + CCCCn1cc[n+](C)c1.CS(=O)(=O)[O-] | 8.02 ± 0.55 | 8.52 ± 0.58 | 9.06 ± 0.62 | 9.64 ± 0.66 | – | – | – | –
CC(C)O [propan-2-ol] + CCCCn1cc[n+](C)c1.CS(=O)(=O)[O-] | – | – | – | – | 0.835 ± 0.054 | 0.878 ± 0.056 | 0.928 ± 0.059 | 0.976 ± 0.061
CCC(C)O (configuration not stated) [butan-2-ol] + CCCCn1cc[n+](C)c1.COP(=O)([O-])OC | – | – | – | – | 0.327 ± 0.032 | 0.365 ± 0.033 | 0.406 ± 0.034 | 0.451 ± 0.036
C=Cc1ccccc1 [styrene] + CCCCn1cc[n+](C)c1.COP(=O)([O-])OC | 2.79 ± 0.19 | 2.93 ± 0.2 | 3.06 ± 0.21 | 3.26 ± 0.22 | – | – | – | –
